Test system: Pythium aphanidermatum
Assay: Test Example 1: spray on lawn grass sods, inoculation with Pythium aphanidermatum, control value from lesion diameter
Assay type: in vivo
Details: for Control Value (%): alone, lesion diameter seven days after inoculation; for efficacy against Pythium aphanidermatum: treated each alone
Source text: With a hand spray, chemical agents (no spreader added) prepared from commercial formulations at the predetermined concentrations were sprayed with the volume of 0.25 l/m^2. Seven days after the final spraying, with a hole cutter (10 cm in diameter), two sods were cut out, transferred into a greenhouse and inoculated with Pythium aphanidermatum.
For the test plot for the present invention, chemical solutions of tiadinil and chlorothalonil were each prepared, and each of the chemical solutions were blended for use as compositions and combinations.
Seven days after the inoculation, lesion diameters in each treated plots and the untreated plot were measured for calculating the control values for each treated plots using an equation below.
In general, in a case, where two active ingredients given are mixed and treated, if the actual efficacy measured is larger than the Colby's expectation value (E) calculated using the Colby's equation below, wherein value (E) is interpreted to denote an expected control value (%) which is predicted by the combination of the two active ingredients, the function achieved by the combination of the two active ingredients is determined to be synergistic.
(wherein X represents the preventive value (%) of one of the active ingredients and Y represents the preventive value (%) of the other active ingredient.)

Row | Structure (SMILES) | Control Value (%) (dose 0.15625 fl oz/1,000 ft^2) | Control Value (%) (dose 0.3125 fl oz/1,000 ft^2) | Control Value (%) (dose 0.625 fl oz/1,000 ft^2) | Control Value (%) (dose 1.25 fl oz/1,000 ft^2) | efficacy against Pythium aphanidermatum | Control Value (%) (dose 1.1 fl oz/1,000 ft^2)
1 | Cc1ccc(NC(=O)c2snnc2C)cc1Cl [Tiadinil, tiadinil] | 11 | 11 | 22 | 22 | did not show sufficient efficacy | 
2 | N#Cc1c(Cl)c(Cl)c(Cl)c(C#N)c1Cl [Chlorothalonil, chlorothalonil] |  |  |  |  | did not show sufficient efficacy | 22

Reference: patent publication US20160278381A1, “Agricultural And Horticultural Fungicidal Composition And Method Of Use Of the Same” (NIHON NOHYAKU CO., LTD., priority 2015, published 2016)
